According to patent US12258328B2, “6-membered heteroaryl-containing aminopyridine compounds as EGFR inhibitors” (YUHAN CORPORATION, priority 2021, dated 2025):
Read-outs that look alike come from different tables or passages of the source.

Legend:
EGFR del19/T790M/C797S = EGFR del19/T790M/C797S (Homo sapiens, UniProt P00533, C797S/DEL746-750/T790M); test: Biochemical EGFR kinase assay (Lance Ultra TR-FRET), triple mutant del19/T790M/C797S
Outline: (§1)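 Enzyme reactions lasted 1 hour at room temperature with test compounds between 0.003 and 10 μM, followed by 10 mM EDTA quench.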

EGFR L858R/T790M/C797S = EGFR L858R/T790M/C797S (Homo sapiens, UniProt P00533, C797S/L858R/T790M); test: Biochemical EGFR kinase assay (Lance Ultra TR-FRET), triple mutant L858R/T790M/C797S
EGFR L858R/T790M/C797S, sequence (P00533 25-1210 T790M/C797S/L858R): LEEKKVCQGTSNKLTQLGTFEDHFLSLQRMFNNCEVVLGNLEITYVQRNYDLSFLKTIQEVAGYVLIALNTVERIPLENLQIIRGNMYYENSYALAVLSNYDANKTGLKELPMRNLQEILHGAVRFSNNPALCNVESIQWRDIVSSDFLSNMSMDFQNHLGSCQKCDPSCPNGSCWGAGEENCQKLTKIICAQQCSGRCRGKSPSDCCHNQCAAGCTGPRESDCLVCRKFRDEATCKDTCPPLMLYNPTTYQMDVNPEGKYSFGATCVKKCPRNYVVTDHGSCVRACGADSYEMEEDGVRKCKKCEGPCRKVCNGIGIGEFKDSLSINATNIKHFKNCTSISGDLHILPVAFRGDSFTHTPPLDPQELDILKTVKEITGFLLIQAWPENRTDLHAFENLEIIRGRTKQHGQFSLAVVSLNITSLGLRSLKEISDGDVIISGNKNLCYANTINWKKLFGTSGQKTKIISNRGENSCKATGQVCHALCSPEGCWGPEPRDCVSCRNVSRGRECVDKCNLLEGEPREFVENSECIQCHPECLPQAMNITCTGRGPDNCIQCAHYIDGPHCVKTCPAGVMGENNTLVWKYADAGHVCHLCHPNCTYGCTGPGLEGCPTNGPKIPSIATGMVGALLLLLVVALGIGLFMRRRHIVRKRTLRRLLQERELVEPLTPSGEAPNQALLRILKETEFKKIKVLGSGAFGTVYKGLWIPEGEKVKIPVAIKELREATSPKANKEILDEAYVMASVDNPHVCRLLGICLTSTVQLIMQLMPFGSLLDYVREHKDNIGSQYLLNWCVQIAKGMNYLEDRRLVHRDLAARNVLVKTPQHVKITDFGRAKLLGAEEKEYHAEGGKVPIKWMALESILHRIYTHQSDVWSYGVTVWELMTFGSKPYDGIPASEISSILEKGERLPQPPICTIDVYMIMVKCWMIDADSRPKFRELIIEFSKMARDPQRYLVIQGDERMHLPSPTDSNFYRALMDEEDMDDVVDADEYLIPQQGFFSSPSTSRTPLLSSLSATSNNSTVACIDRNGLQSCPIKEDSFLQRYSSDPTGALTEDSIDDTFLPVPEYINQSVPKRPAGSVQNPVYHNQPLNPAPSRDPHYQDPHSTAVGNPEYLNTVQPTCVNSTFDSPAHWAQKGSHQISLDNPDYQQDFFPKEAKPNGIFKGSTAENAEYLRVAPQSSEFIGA
Outline: as §1

EGFR del19/C797S = EGFR del19/C797S (Homo sapiens, UniProt P00533, C797S/DEL746-750); test: Biochemical EGFR kinase assay (Lance Ultra TR-FRET), double mutant del19/C797S
EGFR del19/C797S, sequence (P00533 with tags, fused parts or gaps DEL746-750/C797S): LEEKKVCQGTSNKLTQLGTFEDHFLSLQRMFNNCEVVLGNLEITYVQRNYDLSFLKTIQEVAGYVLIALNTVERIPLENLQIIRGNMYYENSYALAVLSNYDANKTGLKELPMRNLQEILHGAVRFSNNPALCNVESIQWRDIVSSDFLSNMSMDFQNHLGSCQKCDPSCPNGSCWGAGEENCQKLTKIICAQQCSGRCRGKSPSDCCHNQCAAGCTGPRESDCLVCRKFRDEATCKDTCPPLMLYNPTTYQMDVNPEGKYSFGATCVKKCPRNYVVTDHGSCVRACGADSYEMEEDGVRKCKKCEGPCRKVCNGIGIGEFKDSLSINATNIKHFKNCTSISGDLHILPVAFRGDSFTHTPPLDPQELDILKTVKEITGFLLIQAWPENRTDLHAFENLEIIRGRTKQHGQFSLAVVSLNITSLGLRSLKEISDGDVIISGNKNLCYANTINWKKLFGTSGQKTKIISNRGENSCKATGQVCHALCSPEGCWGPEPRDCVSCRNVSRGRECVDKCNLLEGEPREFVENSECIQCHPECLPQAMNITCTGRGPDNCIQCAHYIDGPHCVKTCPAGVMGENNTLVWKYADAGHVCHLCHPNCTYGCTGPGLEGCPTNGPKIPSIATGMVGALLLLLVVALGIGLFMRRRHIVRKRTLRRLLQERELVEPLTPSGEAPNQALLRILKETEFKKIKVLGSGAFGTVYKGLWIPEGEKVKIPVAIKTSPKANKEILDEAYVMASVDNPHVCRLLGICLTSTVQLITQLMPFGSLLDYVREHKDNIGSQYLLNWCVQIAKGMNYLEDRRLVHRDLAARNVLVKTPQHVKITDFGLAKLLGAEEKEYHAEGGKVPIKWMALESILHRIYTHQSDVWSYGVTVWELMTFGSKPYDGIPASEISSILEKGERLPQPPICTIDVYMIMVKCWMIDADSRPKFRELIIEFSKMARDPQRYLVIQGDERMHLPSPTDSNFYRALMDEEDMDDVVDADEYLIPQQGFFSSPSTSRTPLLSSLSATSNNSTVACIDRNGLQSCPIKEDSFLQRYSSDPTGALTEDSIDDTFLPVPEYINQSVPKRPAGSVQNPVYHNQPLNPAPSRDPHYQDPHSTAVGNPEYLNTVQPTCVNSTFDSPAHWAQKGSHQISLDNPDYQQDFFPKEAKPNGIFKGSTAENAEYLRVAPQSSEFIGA
Outline: as §1

EGFR L858R/C797S = EGFR L858R/C797S (Homo sapiens, UniProt P00533, C797S/L858R); test: Biochemical EGFR kinase assay (Lance Ultra TR-FRET), double mutant L858R/C797S
EGFR L858R/C797S, sequence (P00533 25-1210 C797S/L858R): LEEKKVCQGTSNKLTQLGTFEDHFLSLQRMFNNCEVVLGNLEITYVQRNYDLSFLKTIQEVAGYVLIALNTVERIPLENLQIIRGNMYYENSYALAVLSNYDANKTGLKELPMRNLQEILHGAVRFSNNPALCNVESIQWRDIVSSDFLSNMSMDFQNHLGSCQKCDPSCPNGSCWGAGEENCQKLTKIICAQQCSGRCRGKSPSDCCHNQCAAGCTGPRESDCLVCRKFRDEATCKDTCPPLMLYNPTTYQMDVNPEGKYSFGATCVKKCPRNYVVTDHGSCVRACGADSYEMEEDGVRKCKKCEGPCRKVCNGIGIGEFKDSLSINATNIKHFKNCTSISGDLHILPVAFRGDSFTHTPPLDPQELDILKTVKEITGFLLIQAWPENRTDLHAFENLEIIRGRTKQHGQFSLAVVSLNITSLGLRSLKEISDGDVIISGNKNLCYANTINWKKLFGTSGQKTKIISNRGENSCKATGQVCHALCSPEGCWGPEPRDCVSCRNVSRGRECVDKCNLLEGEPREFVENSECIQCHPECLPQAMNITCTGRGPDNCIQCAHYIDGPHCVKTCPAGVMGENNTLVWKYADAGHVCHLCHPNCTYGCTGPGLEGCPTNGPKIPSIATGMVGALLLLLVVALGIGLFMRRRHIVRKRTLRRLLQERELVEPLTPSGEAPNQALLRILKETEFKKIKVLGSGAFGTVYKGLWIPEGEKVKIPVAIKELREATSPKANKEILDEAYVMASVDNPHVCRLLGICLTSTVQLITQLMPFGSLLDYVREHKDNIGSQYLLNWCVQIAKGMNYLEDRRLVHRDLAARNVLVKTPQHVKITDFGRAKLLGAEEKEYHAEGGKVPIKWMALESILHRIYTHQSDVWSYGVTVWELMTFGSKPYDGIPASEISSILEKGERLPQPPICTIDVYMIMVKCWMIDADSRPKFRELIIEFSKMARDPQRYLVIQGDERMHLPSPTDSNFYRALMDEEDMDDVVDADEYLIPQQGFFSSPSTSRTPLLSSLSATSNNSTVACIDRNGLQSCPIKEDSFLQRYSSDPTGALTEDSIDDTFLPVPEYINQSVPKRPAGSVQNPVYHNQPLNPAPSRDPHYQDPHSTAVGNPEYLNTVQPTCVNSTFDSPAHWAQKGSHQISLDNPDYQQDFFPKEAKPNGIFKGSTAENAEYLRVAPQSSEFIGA
Outline: as §1

EGFR wildtype = EGFR wildtype (Homo sapiens, UniProt P00533); test: Biochemical EGFR kinase assay (Lance Ultra TR-FRET), wildtype
EGFR wildtype, sequence (P00533 25-1210): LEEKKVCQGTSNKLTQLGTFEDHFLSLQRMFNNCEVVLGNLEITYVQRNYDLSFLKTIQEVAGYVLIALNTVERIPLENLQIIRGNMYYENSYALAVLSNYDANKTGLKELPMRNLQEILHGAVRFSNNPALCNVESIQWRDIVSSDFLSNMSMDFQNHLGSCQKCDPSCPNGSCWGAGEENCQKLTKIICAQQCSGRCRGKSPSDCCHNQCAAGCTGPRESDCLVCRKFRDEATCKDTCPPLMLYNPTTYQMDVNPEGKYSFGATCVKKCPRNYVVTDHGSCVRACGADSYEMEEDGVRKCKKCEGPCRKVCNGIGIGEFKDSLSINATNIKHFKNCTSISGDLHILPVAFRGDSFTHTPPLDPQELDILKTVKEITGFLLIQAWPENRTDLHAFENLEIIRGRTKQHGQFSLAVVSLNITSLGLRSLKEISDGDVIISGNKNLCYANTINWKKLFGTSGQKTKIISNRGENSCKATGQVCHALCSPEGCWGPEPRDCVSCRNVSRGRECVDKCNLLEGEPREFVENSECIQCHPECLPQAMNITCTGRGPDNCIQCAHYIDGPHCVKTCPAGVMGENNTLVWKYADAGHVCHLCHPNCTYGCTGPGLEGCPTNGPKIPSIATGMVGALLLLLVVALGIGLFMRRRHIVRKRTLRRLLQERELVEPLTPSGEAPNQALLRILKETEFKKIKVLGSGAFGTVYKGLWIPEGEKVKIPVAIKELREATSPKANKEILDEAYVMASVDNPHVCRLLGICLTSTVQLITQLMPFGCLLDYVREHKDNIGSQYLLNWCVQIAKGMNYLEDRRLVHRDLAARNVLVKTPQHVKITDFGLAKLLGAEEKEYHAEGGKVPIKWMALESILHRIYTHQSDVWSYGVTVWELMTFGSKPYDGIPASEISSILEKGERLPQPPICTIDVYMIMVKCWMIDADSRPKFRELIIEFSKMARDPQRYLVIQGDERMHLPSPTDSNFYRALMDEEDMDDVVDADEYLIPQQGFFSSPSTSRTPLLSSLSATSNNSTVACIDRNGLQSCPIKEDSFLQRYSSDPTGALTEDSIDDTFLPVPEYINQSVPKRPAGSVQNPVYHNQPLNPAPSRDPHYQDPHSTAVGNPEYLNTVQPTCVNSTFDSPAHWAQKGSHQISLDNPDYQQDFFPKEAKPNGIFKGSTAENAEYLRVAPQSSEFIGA
Outline: as §1

[1] = ATP at Km, read-out: IC50 del19/T790M/C797S, Km ATP
[2] = ATP at Km, read-out: IC50 L858R/T790M/C797S, Km ATP
[3] = ATP at Km, read-out: IC50 del19/C797S, Km ATP
[4] = ATP at Km, read-out: IC50 L858R/C797S, Km ATP
[5] = ATP at Km, read-out: IC50 WT, Km ATP
[6] = IC50 del19/T790M/C797S, 100 μM ATP
[7] = IC50 L858R/T790M/C797S, 100 μM ATP
[8] = Km ATP, read-out: IC50 del19/T790M/C797S (nM) Km ATP
[9] = Km ATP, read-out: IC50 L858R/T790M/C797S (nM) Km ATP
[10] = Km ATP, read-out: IC50 del19/C797S (nM) Km ATP
[11] = Km ATP, read-out: IC50 L858R/C797S (nM) Km ATP
[12] = Km ATP, read-out: IC50 WT (nM) Km ATP
[13] = IC50 del19/T790M/C797S (nM) 100 μM ATP, 100 μM ATP
[14] = IC50 L858R/T790M/C797S (nM) 100 μM ATP, 100 μM ATP
[15] = IC50 del19/C797S (nM) 100 μM ATP, 100 μM ATP
[16] = IC50 L858R/C797S (nM) 100 μM ATP, 100 μM ATP
[17] = IC50 WT (nM) 100 μM ATP, 100 μM ATP

Row | Compound | IC50 (EGFR del19/T790M/C797S; [1]) [nM] | IC50 (EGFR L858R/T790M/C797S; [2]) [nM] | IC50 (EGFR del19/C797S; [3]) [nM] | IC50 (EGFR L858R/C797S; [4]) [nM] | IC50 (EGFR wildtype; [5]) [nM] | IC50 (EGFR del19/T790M/C797S; [6]) [nM] | IC50 (EGFR L858R/T790M/C797S; [7]) [nM] | IC50 (EGFR del19/C797S; IC50 del19/C797S, 100 μM ATP) [nM] | IC50 (EGFR L858R/C797S; IC50 L858R/C797S, 100 μM ATP) [nM] | IC50 (EGFR wildtype; IC50 WT, 100 μM ATP) [nM] | IC50 (EGFR del19/T790M/C797S; [8]) [nM] | IC50 (EGFR L858R/T790M/C797S; [9]) [nM] | IC50 (EGFR del19/C797S; [10]) [nM] | IC50 (EGFR L858R/C797S; [11]) [nM] | IC50 (EGFR wildtype; [12]) [nM] | IC50 (EGFR del19/T790M/C797S; [13]) [nM] | IC50 (EGFR L858R/T790M/C797S; [14]) [nM] | IC50 (EGFR del19/C797S; [15]) [nM] | IC50 (EGFR L858R/C797S; [16]) [nM] | IC50 (EGFR wildtype; [17]) [nM]
1 | C[C@]1(O)CC[C@@H](Nc2cc(Nc3ccnc(-c4cnn(S(=O)(=O)C5CC5)c4)n3)ncc2-c2ccc(CCC(F)(F)F)cn2)CC1 [Example 263, (1s,4s)-4-((6′-((2-(1-(Cyclopropylsulfonyl)-1H-pyrazol-4-yl)pyrimidin-4-yl)amino)-5-(3,3,3-trifluoropropyl)-[2,3′-bipyridin]-4′-yl)amino)-1-methylcyclohexan-1-ol] | 8 | 3.4 | 23.1 | 0.9 | 14.1 | – | – | – | – | – | – | – | – | – | – | – | – | – | – | –
2 | CC(O)(c1ccc(-c2cnc(Nc3ccnc(-c4cnn(S(=O)(=O)C5CC5)c4)n3)cc2N[C@H]2CCC[C@H](CO)C2)nc1)C(F)(F)F (stereo partly drawn) [Example 232, 2-(6′-((2-(1-(Cyclopropylsulfonyl)-1H-pyrazol-4-yl)pyrimidin-4-yl)amino)-4′-(((1S,3S)-3-(hydroxymethyl)cyclohexyl)amino)-[2,3′-bipyridin]-5-yl)-1,1,1-trifluoropropan-2-ol] | 3.9 | 0.8 | 3.3 | 6.7 | 19 | 2.1 | 0.8 | 9.5 | 60.2 | 8760 | – | – | – | – | – | – | – | – | – | –
3 | CN(C)CCNc1ccnc(-c2cnc(Nc3ccnc(-c4cnn(S(=O)(=O)C5CC5)c4)n3)cc2N[C@H]2CC[C@@](C)(O)CC2)c1 [Example 276, (1s,4s)-4-((6′-((2-(1-(Cyclopropylsulfonyl)-1H-pyrazol-4-yl)pyrimidin-4-yl)amino)-4-((2-(dimethylamino)ethyl)amino)-[2,3′-bipyridin]-4′-yl)amino)-1-methylcyclohexan-1-ol] | 0.8 | 0.2 | 0.3 | 0.7 | 2.9 | 1.1 | 0.5 | 0.7 | 2.3 | 2530 | – | – | – | – | – | – | – | – | – | –
4 | C[C@]1(O)CC[C@@H](Nc2cc(Nc3ccnc(-c4cnn(S(=O)(=O)C5CC5)c4)n3)ncc2-c2cc(NCCN3CC(F)C3)ccn2)CC1 [Example 281, (1s,4s)-4-((6′-((2-(1-(Cyclopropylsulfonyl)-1H-pyrazol-4-yl)pyrimidin-4-yl)amino)-4-((2-(3-fluoroazetidin-1-yl)ethyl)amino)-[2,3′-bipyridin]-4′-yl)amino)-1-methylcyclohexan-1-ol] | – | – | – | – | – | 0.2 | 0.2 | 0.6 | 2.1 | 6340 | – | – | – | – | – | – | – | – | – | –
5 | CN(C)S(=O)(=O)n1cc(-c2nccc(Nc3cc(NC4CCC(C)(O)CC4)c(-c4ccc(C(C)(O)C(F)(F)F)cn4)cn3)n2)cn1 (centres unmarked) [Example 298, 4-(4-((4′-(((1s,4s)-4-Hydroxy-4-methylcyclohexyl)amino)-5-(1,1,1-trifluoro-2-hydroxypropan-2-yl)-[2,3′-bipyridin]-6′-yl)amino)pyrimidin-2-yl)-N,N-dimethyl-1H-pyrazole-1-sulfonamide] | 1.8 | 1.1 | 2.9 | 1.7 | 15.4 | – | – | – | – | – | – | – | – | – | – | – | – | – | – | –
6 | CN(C)C(=O)[C@H]1CC[C@@H](Nc2cc(Nc3ccnc(-c4cnn(S(=O)(=O)C5CC5)c4)n3)ncc2-c2ccc(C(C)(C)O)cn2)CC1 [Example 172, (1s,4s)-4-((6′-((2-(1-(Cyclopropylsulfonyl)-1H-pyrazol-4-yl)pyrimidin-4-yl)amino)-5-(2-hydroxypropan-2-yl)-[2,3′-bipyridin]-4′-yl)amino)-N,N-dimethylcyclohexane-1-carboxamide] | 0.7 | 0.2 | 0.3 | 1.3 | 0.4 | 0.6 | 0.2 | 0.8 | 4.8 | 93.2 | – | – | – | – | – | – | – | – | – | –
7 | CN1CCC(Oc2ccc(-c3cnc(Nc4ccnc(-c5cnn(S(=O)(=O)C6CC6)c5)n4)cc3N[C@H]3CC[C@@H](F)CC3)nc2)CC1 [Example 132, N^6′-(2-(1-(Cyclopropylsulfonyl)-1H-pyrazol-4-yl)pyrimidin-4-yl)-N^4′-((1s,4s)-4-fluorocyclohexyl)-5-((1-methylpiperidin-4-yl)oxy)-[2,3′-bipyridine]-4′,6′-diamine] | – | – | – | – | – | – | – | – | – | – | 0.4 | 0.4 | 0.4 | 0.3 | 0.8 | – | – | – | – | –
8 | Cc1ccc(-c2cnc(Nc3ccnc(-c4cnn(S(=O)(=O)C5CC5)c4)n3)cc2N[C@H]2CC[C@@](C)(O)CC2)nc1 [Example 8, (1s,4s)-4-((6′-((2-(1-(Cyclopropylsulfonyl)-1H-pyrazol-4-yl)pyrimidin-4-yl)amino)-5-methyl-[2,3′-bipyridin]-4′-yl)amino)-1-methylcyclohexan-1-ol] | – | – | – | – | – | – | – | – | – | – | 0.4 | 0.1 | 0.4 | 0.4 | 1 | 0.2 | 0.2 | 0.7 | 6.3 | 8890
9 | C[C@]1(O)CC[C@@H](Nc2cc(Nc3ccnc(-c4cnn(S(=O)(=O)C5CC5)c4)n3)ncc2-c2ccc(C(F)F)cn2)CC1 [Example 63, (1s,4s)-4-((6′-((2-(1-(Cyclopropylsulfonyl)-1H-pyrazol-4-yl)pyrimidin-4-yl)amino)-5-(difluoromethyl)-[2,3′-bipyridin]-4′-yl)amino)-1-methylcyclohexan-1-ol] | – | – | – | – | – | – | – | – | – | – | – | – | – | – | – | 0.2 | 0.2 | 0.8 | 5.4 | > 10000
10 | CC(C)(O)[C@H]1CC[C@@H](Nc2cc(Nc3ccnc(-c4cnn(S(=O)(=O)C5CC5)c4)n3)ncc2-c2cnc(F)cn2)CC1 [Example 186, 2-((1s,4s)-4-((2-((2-(1-(Cyclopropylsulfonyl)-1H-pyrazol-4-yl)pyrimidin-4-yl)amino)-5-(5-fluoropyrazin-2-yl)pyridin-4-yl)amino)cyclohexyl)propan-2-ol] | 3.8 | – | 11.5 | 5.8 | 744 | 29 | 4.8 | 56.8 | 165 | > 10000 | – | – | – | – | – | – | – | – | – | –
11 | O=S(=O)(C1CC1)n1cc(-c2nccc(Nc3cc(N[C@H]4CC[C@@H](CO)CC4)c(-c4ccc(OC(F)(F)F)cn4)cn3)n2)cn1 [Example 195, ((1s,4s)-4-((6′-((2-(1-(Cyclopropylsulfonyl)-1H-pyrazol-4-yl)pyrimidin-4-yl)amino)-5-(trifluoromethoxy)-[2,3′-bipyridin]-4′-yl)amino)cyclohexyl)methanol] | 3.3 | 1 | 6.6 | 3.6 | 25 | 3.6 | 2.5 | 16.3 | 36.9 | > 10000 | – | – | – | – | – | – | – | – | – | –
12 | FC(F)Cn1cc(-c2nccc(Nc3cc(N[C@H]4CC[C@@H](F)CC4)c(-c4ccc(N5CCOCC5)cn4)cn3)n2)cn1 [Example 137, N^6′-(2-(1-(2,2-Difluoroethyl)-1H-pyrazol-4-yl)pyrimidin-4-yl)-N^4′-((1s,4s)-4-fluorocyclohexyl)-5-morpholino-[2,3′-bipyridine]-4′,6′-diamine] | – | – | – | – | – | – | – | – | – | – | 1.1 | 0.2 | 74.4 | 6.4 | 272 | – | – | – | – | –
13 | O=S(=O)(C1CC1)n1cc(-c2nccc(Nc3cc(N[C@H]4CC[C@@H](CO)CC4)c(-c4cc(NC5CC(F)(F)C5)ccn4)cn3)n2)cn1 [Example 214, ((1s,4s)-4-((6′-((2-(1-(Cyclopropylsulfonyl)-1H-pyrazol-4-yl)pyrimidin-4-yl)amino)-4-((3,3-difluorocyclobutyl)amino)-[2,3′-bipyridin]-4′-yl)amino)cyclohexyl)methanol] | 3 | 3.5 | 1.8 | 2.2 | 4.5 | 5.6 | 4.5 | 8 | 6.9 | 711 | – | – | – | – | – | – | – | – | – | –
14 | CS(=O)(=O)c1ccc(-c2cnc(Nc3ccnc(-c4cnn(S(=O)(=O)C5CC5)c4)n3)cc2N[C@H]2CC[C@@H](CO)CC2)nc1 [Example 158, ((1s,4s)-4-((6′-((2-(1-(Cyclopropylsulfonyl)-1H-pyrazol-4-yl)pyrimidin-4-yl)amino)-5-(methylsulfonyl)-[2,3′-bipyridin]-4′-yl)amino)cyclohexyl)methanol] | – | – | – | – | – | 0.3 | 0.4 | 0.4 | 2.4 | 541 | – | – | – | – | – | – | – | – | – | –
